What was measured:
Type in all cases: cell-based, C57BL/6 mice
[1] = tested on: IL-6 production; experiment: Inhibition of IL-6 production in LPS-stimulated peritoneal macrophages (ELISA); settings: for Effect on production of IL-6 at single concentration: 30 μM, 1 h before 10 ng/mL LPS; for Effect on production of IL-6 at single concentration / Dose-dependent inhibition of IL-6 production: 6 h; for IC50: peritoneal macrophages, compounds 1 h before 10 ng/mL LPS, supernatant after 6 h, average of three independent experiments in duplicate ± S.D.; for Dose-dependent inhibition of IL-6 production: 1, 3, 10, 30 μM, 10 ng/mL LPS; for Relative activity on IL-6 production (SAR ranking): ranking in discussion
Protocol: (§1) Peritoneal macrophages were obtained four days after i.p. instillation of 2 mL of thioglycollate 3%, by peritoneal washing with chilled RPMI. Cells were seeded in RPMI with 10% FCS at 2 × 10^5/well in 96-well plates and cultured for 2 h at 37 °C in an atmosphere of 5% CO2. Cells were treated with compounds 1–15 (30 μM) 1 h before the stimulus with 10 ng/mL of LPS. For dose response experiments, cells were pre-treated with different concentrations (1, 3, 10, 30 μM) of compounds 1, 2, 4, 5, 6, 8, 10, 13, and 15 before the stimulation with 10 ng/mL of LPS. All the treatments and controls were performed in the presence of 0.5% of DMSO, as compounds are solubilized in this solvent. Supernatants were collected 6h after the stimulus with LPS.
(§2) Peritoneal macrophages were cultured as previously described. The concentrations of IL-6 were determined by ELISA (DuoSet kit, R&D System) according to the manufacturer’s protocol. The concentration of prostaglandin E2 (PGE2) was determined using the “Prostaglandin E2 ELISA Kit - Monoclonal” from Cayman CHEMICAL, according to the manufacturer’s protocol.
(§3) Results were analyzed using the statistical software package GraphPad Prism 5. Data are presented as means ± S.E.M. Statistical analysis was performed by Student’s t-test. A significant difference between groups was considered when p < 0.05. The half maximal inhibitory concentration (IC50) was calculated by adjusting a sigmoidal dose–response curve following GraphPad Prism5 procedure.

[2] = tested on: PGE2 production; experiment: Inhibition of PGE2 production in LPS-stimulated peritoneal macrophages (ELISA); settings: for IC50: peritoneal macrophages, compounds 1 h before 10 ng/mL LPS, supernatant after 6 h, average of three independent experiments in duplicate ± S.D.; for Relative activity on PGE2 production (SAR ranking): ranking among the monofunctionalized, discussion
Protocol: as §1, §2, §3

[3] = tested on: Peritoneal macrophages; experiment: Cytotoxicity assay (MTT) on peritoneal macrophages; settings: 30 μM, after supernatant collection
Protocol: as §1
After the removal of supernatants, 100 µL of MTT (0.5 mg/mL) dissolved in RPMI were added to each well and cells were incubated overnight at 37 °C. The supernatants were removed and formazan crystals were dissolved in 100 µL of 0.04 M HCl in isopropanol. The color was analyzed at 570 nm using an ELISA plate reader. The percent of viable cells was calculated using the formula: % viability: [(OD sample) × 100%]/(OD control). The non-stimulated cells, cultured in medium plus 10% FCS and 0.5% DMSO, represented 100% viability.

[4] = Mus musculus, Peritoneal macrophage

Molecule | IC50 [1, 4] [µM] | IC50 [2, 4] [µM] | Effect on production of IL-6 at single concentration [1] | Relative activity on PGE2 production (SAR ranking) [2] | Relative activity on IL-6 production (SAR ranking) [1] | further results
COc1cc(/C=C/C(O)=C/C(=O)/C=C/c2ccc(OCc3ccccc3)c(OC)c2)ccc1O [Compound 2, reference compound] | 3.59 ± 0.27 | 0.51 ± 0.08 | – | – | – | Effect on IL-6 production at lowest concentration ([1]; 1 μM): statistically significant inhibitory effect; Dose-dependent inhibition of IL-6 production [1]: inhibited the production of IL-6 in a dose-dependent manner; Effect on PGE2 production at 1 μM ([2]; 1 μM): showed an effect; Dose-dependent inhibition of PGE2 production ([2]; 1, 3, 10, 30 μM, 10 ng/mL LPS, 6 h): inhibitory effect on PGE2 production at all concentrations tested
COc1cc(/C=C/C(=O)/C=C(O)/C=C/c2ccc(OC(=O)CCC(=O)OC(c3ccccc3)C3CCCCC3)c(OC)c2)ccc1OC(=O)CCC(=O)OC(c1ccccc1)C1CCCCC1 (centres unmarked) [Compound 7, Bis(cyclohexyl(phenyl)methyl) O,O′-(((1E,3Z,6E)-3-hydroxy-5-oxohepta-1,3,6-triene-1,7-diyl)bis(2-methoxy-4,1-phenylene)) Disuccinate] | – | – | did not show this activity | – | – | –
4-((1E,4Z,6E)-5-Hydroxy-7-(4-hydroxy-3-methoxyphenyl)-3-oxohepta-1,4,6-trien-1-yl)-2-methoxyphenyl (1,2,3,4-tetrahydronaphthalen-1-yl) Succinate [Compound 15] | – | – | – | showed activity | less active | IC50 [1]: 10.4 ± 0.75 µM; Effect on PGE2 production at 3 μM ([2]; 3 μM): significantly reduced PGE2 production; IC50 [2]: 3.07 ± 0.72 µM
COc1cc(/C=C/C(O)=C/C(=O)/C=C/c2ccc(OC(=O)CCC(=O)O[C@@H]3C[C@H](C)CC[C@H]3C(C)C)c(OC)c2)ccc1O [Compound 13, 4-((1E,4Z,6E)-5-Hydroxy-7-(4-hydroxy-3-methoxyphenyl)-3-oxohepta-1,4,6-trien-1-yl)-2-methoxyphenyl((1R,2S,5R)-2-isopropyl-5-methylcyclohexyl) Succinate] | 10.6 ± 0.33 | 5.42 ± 2.04 | – | lowest activity | less active | –
COc1cc(/C=C/C(=O)/C=C(O)/C=C/c2ccc(OC(=O)CCC(=O)OC3c4ccccc4-c4ccccc43)c(OC)c2)ccc1OC(=O)CCC(=O)OC1c2ccccc2-c2ccccc21 [Compound 9, Di(9H-fluoren-9-yl) O,O′-(((1E,3Z,6E)-3-hydroxy-5-oxohepta-1,3,6-triene-1,7-diyl)bis(2-methoxy-4,1-phenylene)) Disuccinate] | – | – | did not show this activity | – | – | –
COc1cc(/C=C/C(O)=C/C(=O)/C=C/c2ccc(OC(=O)CCC(=O)O[C@@H]3C[C@H](C)CC[C@H]3C(C)C)c(OC)c2)ccc1OC(=O)CCC(=O)O[C@H]1C[C@@H](C)CC[C@@H]1C(C)C [Compound 12, O,O′-(((1E,3Z,6E)-3-Hydroxy-5-oxohepta-1,3,6-triene-1,7-diyl)bis(2-methoxy-4,1-phenylene)) bis((1R,2S,5R)-2-isopropyl-5-methylcyclohexyl) Disuccinate] | – | – | did not show this activity | – | – | –
Curcumin [Compound 1, reference compound] | – | – | – | – | – | Dose-dependent inhibition of IL-6 production [1]: inhibited the production of IL-6 in a dose-dependent manner; IC50 [1]: 6.85 ± 2.5 µM; IC50 [2]: 1.34 ± 0.067 µM; Cytotoxicity / cell viability (MTT) [3]: affected cell viability
COc1cc(/C=C/C(=O)/C=C(O)/C=C/c2ccc(OC(=O)CCC(=O)OC3C4CC5CC(C4)CC3C5)c(OC)c2)ccc1OC(=O)CCC(=O)OC1C2CC3CC(C2)CC1C3 (centres unmarked) [Compound 3, Di((1r,3r,5r,7r)-adamantan-2-yl) O,O′-(((1E,3Z,6E)-3-hydroxy-5-oxohepta-1,3,6-triene-1,7-diyl)bis(2-methoxy-4,1-phenylene)) Disuccinate] | – | – | did not show this activity | – | – | –

Continued, in another order:

IC50 [1, 4] [µM] | IC50 [2, 4] [µM] | Molecule | Effect on production of IL-6 at single concentration [1] | Relative activity on PGE2 production (SAR ranking) [2] | Relative activity on IL-6 production (SAR ranking) [1] | further results
1.94 ± 0.66 | 5.9 ± 2.38 | COc1cc(/C=C/C(O)=C/C(=O)/C=C/c2ccc(OC(=O)CCC(=O)OC(c3ccccc3)C3CCCCC3)c(OC)c2)ccc1O (centres unmarked) [Compound 8, Cyclohexyl(phenyl)methyl (4-((1E,4Z,6E)-5-hydroxy-7-(4-hydroxy-3-methoxyphenyl)-3-oxohepta-1,4,6-trien-1-yl)-2-methoxyphenyl) Succinate] | not statistically significant | lowest activity | – | –
7.11 ± 0.75 | 2.6 ± 1.75 | COc1cc(/C=C/C(O)=C/C(=O)/C=C/c2ccc(OC(=O)CCC(=O)OCc3ccc4c(c3)C(=O)c3ccccc3C4=O)c(OC)c2)ccc1O [Compound 5, (9,10-Dioxo-9,10-dihydroanthracen-2-yl)methyl (4-((1E,4Z,6E)-5-hydroxy-7-(4-hydroxy-3-methoxyphenyl)-3-oxohepta-1,4,6-trien-1-yl)-2-methoxyphenyl) Succinate] | – | showed activity | less active | –
10.5 ± 0.6 | 4.5 ± 3.18 | COc1cc(/C=C/C(O)=C/C(=O)/C=C/c2ccc(OC(=O)CCC(=O)OC3C4CC5CC(C4)CC3C5)c(OC)c2)ccc1O (centres unmarked) [Compound 4, (1r,3r,5r,7r)-Adamantan-2-yl (4-((1E,4Z,6E)-5-hydroxy-7-(4-hydroxy-3-methoxyphenyl)-3-oxohepta-1,4,6-trien-1-yl)-2-methoxyphenyl) Succinate] | inhibited the production of IL-6 | lowest activity | less active | –
3.6 ± 0.21 | 5.93 ± 2.29 | COc1cc(/C=C/C(O)=C/C(=O)/C=C/c2ccc(OC(=O)CCC(=O)OC3c4ccccc4-c4ccccc43)c(OC)c2)ccc1O [Compound 10, 9H-Fluoren-9-yl (4-((1E,4Z,6E)-5-hydroxy-7-(4-hydroxy-3-methoxyphenyl)-3-oxohepta-1,4,6-trien-1-yl)-2-methoxyphenyl) Succinate] | inhibited the production of IL-6 | lowest activity | – | –
4.21 ± 0.73 | 4.43 ± 0.85 | COc1cc(/C=C/C(O)=C/C(=O)/C=C/c2ccc(OC(=O)CCC(=O)OC(c3ccccc3)c3ccccc3)c(OC)c2)ccc1O [Compound 6, Benzhydryl (4-((1E,4Z,6E)-5-hydroxy-7-(4-hydroxy-3-methoxyphenyl)-3-oxohepta-1,4,6-trien-1-yl)-2-methoxyphenyl) Succinate] | inhibited the production of IL-6 | showed activity | – | –

Reference: paper PMC9966181, “Polyphenols with Anti-Inflammatory Properties: Synthesis and Biological Activity of Novel Curcumin Derivatives” (International Journal of Molecular Sciences, 2023)
